As usually defined, the LC50 is the concentration that kills 50% of the test population.

Holding throughout (assay type): in vivo
The test system of series [1] is adult Bemisia tabaci (Gennadius). The series can be described thus: Joint toxicity of I-72 + emamectin benzoate, seedling spraying, Example 12, Table 12. The conditions noted are these: Bemisia tabaci; adults, kidney bean seedling spraying, 72 h; A = compound I-72, B = emamectin benzoate; read-out: LC50. The source says:
Test subject: adult Bemisia tabaci (Gennadius), a sensitive strain reared indoors.
Experimental method: the spraying method was adopted. The kidney bean seedlings cultivated in the greenhouse were selected and evenly sprayed with the pesticide solution in the order from low dosage to high dosage according to the experimental design. After natural air-drying in the shade, a self-made glass cover was put on, and the test insects were introduced, with 20-30 insects for each treatment and 3 replicates. In addition, a blank control was set up. The number of dead and live insects was investigated 72 hours later. The corrected mortality rate was calculated using the Abbott's formula, and the DPS data processing software was used for statistical analysis to calculate the toxicities (LC50 values) of the single test pesticides and the mixtures under the test ratios.
The test conditions, the preparation of the pesticide solution and the evaluation method were the same as those in Example 1.

Series [2] relates to 3-instar larvae of Ostrinia furnacnlis Guenee. The experiment in a line: Joint toxicity of I-72 + flubendiamide, Example 61, Table 61. The note with it: A = compound I-72, B = flubendiamide, corn stem dipping, 72 hours, read-out: LC50. Here is the method:
Test target: 3-instar larvae of Ostrinia furnacnlis Guenee.
(§1) Preparation of the pesticide solution: according to different test requirements, the test samples were accurately weighed respectively with an electronic analytical balance. The technical pesticides were dissolved in acetone, and then diluted with 0.1% Tween 80 water into a series of pesticide solutions with a certain concentration gradient according to the experimental design dosage.
Experimental method: first, tender corn stems were selected and dipped in the prepared pesticide solution for 10 s in the order from low dosage to high dosage according to the experimental design. After natural air-drying in the shade, they were placed in a 9-cm-diameter Petri dish with filter paper, and uniform and healthy test insects were introduced, with 10 insects for each treatment and 3 replicates for each treatment. In addition, a blank control was set up.
(§2) The treated test materials were placed in an observation room, and the temperature, humidity and illumination of the observation room could be adjusted as needed. The number of dead and live insects was investigated 72 hours later. […] Then, the co-toxicity coefficient of each ratio was calculated using the Sun Y-P method to evaluate the mixing effect (the same as in Example 1).

The subject of series [3] is Nilaparvata lugens (Stal) nymphs. The experiment in a line: Joint toxicity of I-72 + etofenprox, Example 44, Table 44. The note with it: A = compound I-72, B = etofenprox, potted rice seedling spraying, 72 hours, read-out: LC50. As for the experimental part: Test target: Nilaparvata lugens (Stal) nymphs, a sensitive strain reared indoors.
as §1
Experimental method: the activity of the mixture against the Nilaparvata lugens (Stal) nymphs was determined by adopting the potted-seedling spraying method. First, rice seedlings were planted in culture pots. Uniform spraying was performed with the pesticide solution in the order from low dosage to high dosage according to the experimental design, with 2 mL for each seedling. Then, Nilaparvata lugens nymphs of uniform size were transferred onto the rice seedlings, with 3 replicates for each treatment. In addition, a blank control was set up.
as §2

Series [4] has as its system 3rd-instar larvae of Yponomeuta evonymallus (Linnaeus). The series can be described thus: Joint toxicity of I-72 + thiamethoxam, Example 66, Table 66. The note with it: A = compound I-72, B = thiamethoxam; leaf dipping; 72 hours. As for the experimental part: Test target: 3rd-instar larvae of Yponomeuta evonymallus (Linnaeus).
as §1
Experimental method: first, Hylotelephium spectabile leaves were selected and dipped in the prepared pesticide solution for 10 s in the order from low dosage to high dosage according to the experimental design. After natural air-drying in the shade, they were placed in a 9-cm-diameter Petri dish with filter paper, and uniform and healthy test insects were introduced, with 10 insects for each treatment and 3 replicates for each treatment. In addition, a blank control was set up.
The treated test materials were placed in an observation room, and the temperature, humidity and illumination of the observation room could be adjusted as needed. The number of dead and live insects was investigated 72 hours later.

For series [5], the system named is Thrips flavus Schrank nymphs. The experiment in a line: Joint toxicity of I-72 + spirotetramat, Example 26, Table 26. The conditions noted are these: A = compound I-72, B = spirotetramat, eggplant seedling spraying, 48 hours, read-out: LC50. As for the experimental part: Test target: Thrips flavus Schrank nymphs.
as §1
Experimental method: first, eggplant seedlings with Thrips flavus Schrank were selected, and the base number was counted. Then, uniform spraying was performed with the pesticide solution in the order from low to high doses according to the experimental design, with 2 mL for each seedling and 3 replicates for each treatment. In addition, a blank control was set up.
(§3) The treated test materials were placed in an observation room, and the temperature, humidity and illumination of the observation room could be adjusted as needed. The number of dead and live insects was investigated 48 hours later. […] Then, the co-toxicity coefficient of each ratio was calculated using the Sun Y-P method to evaluate the mixing effect (the same as in Example 1).

The test system of series [6] is Lipaphis erysimi (Kaltenbach). The series can be described thus: Joint toxicity of I-72 + pyrethrin, Example 47, Table 47. The conditions noted are these: Lipaphis erysimi; A = compound I-72, B = pyrethrin; cabbage leaf spraying; 48 hours; read-out: LC50. As for the experimental part: Test target: Lipaphis erysimi (Kaltenbach).
as §1
Experimental method: first, cabbage leaves with uniform and consistent Lipaphis erysimi (Kaltenbach) were selected, with about 30-40 insects on each leaf. Then, they were evenly sprayed with the pesticide solution in the order from low dosage to high dosage according to the experimental design, with 1.5 mL of the solution for each leaf and 3 replicates for each treatment. In addition, a blank control was set up.
as §3

The test system of series [7] is 2nd-instar nymphs of Frankliniella occidentalis Pergande. The experiment in a line: Joint toxicity of I-72 + carbosulfan, leaf spraying, Example 22, Table 22. The note with it: 2nd-instar nymphs, kidney bean leaf spraying, 48 h, A = compound I-72, B = carbosulfan, read-out: LC50. Here is the method:
Test subject: 2nd-instar nymphs of Frankliniella occidentalis Pergande, a sensitive strain reared indoors.
Preparation of the pesticide solution: according to different test requirements, the test samples in Table 1 were accurately weighed respectively with an electronic analytical balance. The technical pesticides were dissolved in acetone, and then diluted with 0.1% Tween 80 water into a series of pesticide solutions with a certain concentration gradient according to the experimental design dosage.
Test conditions: temperature: 25-27° C., humidity: RH 60%, and illumination: L:D=14:10
Experimental method: the spraying method was adopted. The kidney bean leaves cultivated in the greenhouse were selected, and the petioles were wrapped with moist degreased cotton and sealing film. They were evenly sprayed with the pesticide solution in the order from low dosage to high dosage according to the experimental design, placed in a 6-cm-diameter Petri dish with filter paper. After natural air-drying in the shade, the test insects were introduced, with 20 insects for each treatment and 3 replicates. In addition, a blank control was set up. […] The corrected mortality rate was calculated using the Abbott's formula, and the DPS data processing software was used for statistical analysis to calculate the toxicities (LC50 values) of the single test pesticides and the mixtures under the test ratios. […]

For `CN(C(=O)c1ccc2c(c1)OC(F)(F)O2)c1cccc(C(=O)Nc2c(Br)cc(C(F)(C(F)(F)F)C(F)(F)F)cc2OC(F)F)c1F` [Compound I-72], the median lethal concentration (LC50) in series [1] turned out to be 2.97 µg/mL; in series [2], 0.804 µg/mL; in series [3] it was 282 µg/mL; in series [4], 4.5752 µg/mL; in series [5] it was 2.04 µg/mL; in series [6], 10.4 µg/mL. Also, the LC50 in series [7] turned out to be 2.15 µg/mL.

(Values after patent publication US20260198495A1, “BINARY INSECTICIDE COMPOSITION AND USE THEREOF” (SHENYANG SINOCHEM AGROCHEMICALS R & D CO., LTD., priority 2022, published 2026).)
